The values that follow are results of earlier work, collected in patent publication US10568327B1, “Method of controlling phytopathogenic diseases on turfgrass” (Syngenta Crop Protection LLC, priority 2012, dated 2020).

Like-named read-outs stand apart in the source and are kept apart here.

The test system of the data set is creeping bentgrass greens.

As for `CSC(=O)c1cccc2nnsc12` [acibenzolar-S-methyl, S-methyl benzo[1,2,3]thiadiazole-7-carbothioate], the Turf quality entry (6.1 grams/1,000 square meters, with reduced chlorothalonil rates, creeping bentgrass greens, Fry et al. 2006) is given as “below standard” and the Turf quality result (with chlorothalonil at lower than recommended rate, creeping bentgrass putting greens, Zhang et al. 2005) is “unacceptable”.
